Calls of active or inactive are those of the source.
Key:
[1] = P. falciparum Dd2 growth inhibitors, dose response, SYBR Green, cherry-picked samples (AID 1159567); type: functional, cell-based
[2] = biological target: T1, COUP transcription factor 2 (Homo sapiens, UniProt P24468); assay: Luminescence-based cell-based high throughput dose response assay to identify inhibitors of COUP-TFII (NR2F2).; type: functional;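 note: HEK293 cells transiently cotransfected with COUP-TFII expression vector and reporter; luciferase reporter luminescence driven by COUP-TFII from the pX2-168 reporter plasmid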
T1 sequence (P24468 whole entry): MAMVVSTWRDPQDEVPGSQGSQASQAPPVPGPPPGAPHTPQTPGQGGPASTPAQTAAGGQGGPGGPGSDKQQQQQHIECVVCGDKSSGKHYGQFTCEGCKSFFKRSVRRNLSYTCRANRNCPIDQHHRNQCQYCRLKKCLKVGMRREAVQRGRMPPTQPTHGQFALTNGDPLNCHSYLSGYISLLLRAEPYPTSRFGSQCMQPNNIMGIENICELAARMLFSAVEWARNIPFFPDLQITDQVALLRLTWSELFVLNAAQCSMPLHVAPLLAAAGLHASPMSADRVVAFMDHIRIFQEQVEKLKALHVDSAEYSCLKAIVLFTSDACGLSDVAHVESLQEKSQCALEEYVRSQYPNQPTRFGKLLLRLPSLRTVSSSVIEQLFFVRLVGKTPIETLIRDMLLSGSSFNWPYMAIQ

fMet-Leu-Phe receptor = biological target: T2, fMet-Leu-Phe receptor (Homo sapiens, UniProt P21462); assay: FPR ligands, dose response (AID 519); type: functional
T2 sequence (P21462 whole entry): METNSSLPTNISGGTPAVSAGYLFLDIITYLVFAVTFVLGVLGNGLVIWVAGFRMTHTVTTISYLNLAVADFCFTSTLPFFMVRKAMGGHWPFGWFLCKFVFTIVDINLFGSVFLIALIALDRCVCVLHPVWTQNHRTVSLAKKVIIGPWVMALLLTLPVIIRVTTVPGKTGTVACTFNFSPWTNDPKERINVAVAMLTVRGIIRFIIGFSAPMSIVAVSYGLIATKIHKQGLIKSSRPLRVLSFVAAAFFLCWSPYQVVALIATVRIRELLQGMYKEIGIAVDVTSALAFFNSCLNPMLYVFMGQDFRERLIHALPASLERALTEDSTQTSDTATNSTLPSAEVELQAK

[3] = THP-1 cell cytotoxicity, dose response, cytotoxicity control for Vif-APOBEC3G degradation inhibitor project, THP-1 cells (AID 1117359); type: functional; conditions: Human immunodeficiency virus 1, THP-1
[4] = biological target: T3, Apoptotic protease-activating factor 1 (Homo sapiens, UniProt O14727); type: functional
T3 sequence (O14727 whole entry): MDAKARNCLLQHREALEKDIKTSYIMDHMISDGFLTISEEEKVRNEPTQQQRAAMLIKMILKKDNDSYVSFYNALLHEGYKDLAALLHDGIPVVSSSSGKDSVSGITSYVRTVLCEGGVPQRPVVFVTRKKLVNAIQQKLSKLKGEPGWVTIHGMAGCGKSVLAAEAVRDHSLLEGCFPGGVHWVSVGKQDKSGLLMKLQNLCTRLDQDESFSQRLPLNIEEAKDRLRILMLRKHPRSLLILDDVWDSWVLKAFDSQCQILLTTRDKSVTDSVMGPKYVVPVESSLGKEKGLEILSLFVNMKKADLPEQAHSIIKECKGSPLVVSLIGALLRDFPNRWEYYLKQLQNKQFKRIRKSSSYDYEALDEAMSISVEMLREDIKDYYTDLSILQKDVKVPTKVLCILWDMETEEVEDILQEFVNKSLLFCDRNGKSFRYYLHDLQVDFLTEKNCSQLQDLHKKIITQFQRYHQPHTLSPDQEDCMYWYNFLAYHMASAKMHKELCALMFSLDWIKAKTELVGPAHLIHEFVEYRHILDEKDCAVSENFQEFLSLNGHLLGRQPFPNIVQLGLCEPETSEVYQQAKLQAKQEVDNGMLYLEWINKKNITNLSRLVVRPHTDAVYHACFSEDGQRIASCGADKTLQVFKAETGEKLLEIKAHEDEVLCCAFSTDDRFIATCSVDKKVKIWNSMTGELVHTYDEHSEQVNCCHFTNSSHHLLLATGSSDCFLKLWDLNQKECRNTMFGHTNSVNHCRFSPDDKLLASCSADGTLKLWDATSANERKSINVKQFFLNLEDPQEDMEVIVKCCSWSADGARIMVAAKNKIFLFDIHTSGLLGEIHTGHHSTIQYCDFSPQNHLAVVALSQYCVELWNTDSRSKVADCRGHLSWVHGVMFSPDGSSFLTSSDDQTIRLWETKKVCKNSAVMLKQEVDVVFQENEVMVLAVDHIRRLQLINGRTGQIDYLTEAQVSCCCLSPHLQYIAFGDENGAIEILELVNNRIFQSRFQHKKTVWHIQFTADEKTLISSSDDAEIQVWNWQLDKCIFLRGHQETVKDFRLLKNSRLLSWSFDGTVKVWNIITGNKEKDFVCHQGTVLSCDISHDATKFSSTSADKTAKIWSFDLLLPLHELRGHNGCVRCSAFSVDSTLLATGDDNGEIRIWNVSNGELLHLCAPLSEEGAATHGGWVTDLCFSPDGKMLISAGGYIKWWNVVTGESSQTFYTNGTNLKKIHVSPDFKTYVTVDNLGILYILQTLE

Genome polyprotein = Genome polyprotein (dengue virus type 2, UniProt P29990); assay: Dengue-2 NS5 methyltransferase inhibitors, primary screen, biochemical, confirmation dose response (AID 588689); type: functional
Genome polyprotein, sequence (P29990 2492-3391 limits assumed): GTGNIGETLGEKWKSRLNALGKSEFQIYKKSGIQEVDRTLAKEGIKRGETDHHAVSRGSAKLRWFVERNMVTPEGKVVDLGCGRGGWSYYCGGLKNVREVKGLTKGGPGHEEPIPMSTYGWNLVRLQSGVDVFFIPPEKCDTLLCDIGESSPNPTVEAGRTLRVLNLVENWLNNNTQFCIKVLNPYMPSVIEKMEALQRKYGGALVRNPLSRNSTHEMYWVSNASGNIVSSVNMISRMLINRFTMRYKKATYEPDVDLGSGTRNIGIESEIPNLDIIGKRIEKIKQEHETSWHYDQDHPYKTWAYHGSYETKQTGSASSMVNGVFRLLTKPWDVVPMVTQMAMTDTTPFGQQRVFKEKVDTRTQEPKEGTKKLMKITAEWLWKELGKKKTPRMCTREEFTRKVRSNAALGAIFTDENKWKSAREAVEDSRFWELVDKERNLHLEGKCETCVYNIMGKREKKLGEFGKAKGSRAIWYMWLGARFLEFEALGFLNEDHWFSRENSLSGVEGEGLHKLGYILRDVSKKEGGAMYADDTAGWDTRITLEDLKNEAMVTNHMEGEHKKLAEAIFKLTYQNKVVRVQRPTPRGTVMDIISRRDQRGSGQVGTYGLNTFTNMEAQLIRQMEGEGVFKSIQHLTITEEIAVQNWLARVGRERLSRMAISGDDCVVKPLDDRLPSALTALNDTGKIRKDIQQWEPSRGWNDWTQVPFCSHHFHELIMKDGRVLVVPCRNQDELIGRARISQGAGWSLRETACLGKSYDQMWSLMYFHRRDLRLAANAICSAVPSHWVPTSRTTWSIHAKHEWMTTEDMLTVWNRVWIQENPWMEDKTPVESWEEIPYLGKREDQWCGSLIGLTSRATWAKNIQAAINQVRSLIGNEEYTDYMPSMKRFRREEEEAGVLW

Nonstructural protein 1 = Nonstructural protein 1 (Influenza A virus, UniProt Q194T2); type: functional, Influenza A virus (A/California/07/2009(H1N1))
Nonstructural protein 1, sequence (Q194T2 whole entry): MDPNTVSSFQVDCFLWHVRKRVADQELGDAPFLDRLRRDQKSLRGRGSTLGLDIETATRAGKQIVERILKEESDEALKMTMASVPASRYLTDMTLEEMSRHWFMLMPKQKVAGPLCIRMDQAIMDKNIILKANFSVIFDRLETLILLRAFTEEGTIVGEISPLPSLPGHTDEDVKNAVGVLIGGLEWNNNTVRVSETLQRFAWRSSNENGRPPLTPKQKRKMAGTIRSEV

[5] = biological target: T4, Rac GTPase-activating protein 1 (Homo sapiens, UniProt Q9H0H5); assay: MgcRacGAP GTPase-activating activity inhibitors, confirmation, biochemical, ADP Hunter fluorescence, primary and confirmatory (AID 624330); type: functional
T4 sequence (Q9H0H5 whole entry): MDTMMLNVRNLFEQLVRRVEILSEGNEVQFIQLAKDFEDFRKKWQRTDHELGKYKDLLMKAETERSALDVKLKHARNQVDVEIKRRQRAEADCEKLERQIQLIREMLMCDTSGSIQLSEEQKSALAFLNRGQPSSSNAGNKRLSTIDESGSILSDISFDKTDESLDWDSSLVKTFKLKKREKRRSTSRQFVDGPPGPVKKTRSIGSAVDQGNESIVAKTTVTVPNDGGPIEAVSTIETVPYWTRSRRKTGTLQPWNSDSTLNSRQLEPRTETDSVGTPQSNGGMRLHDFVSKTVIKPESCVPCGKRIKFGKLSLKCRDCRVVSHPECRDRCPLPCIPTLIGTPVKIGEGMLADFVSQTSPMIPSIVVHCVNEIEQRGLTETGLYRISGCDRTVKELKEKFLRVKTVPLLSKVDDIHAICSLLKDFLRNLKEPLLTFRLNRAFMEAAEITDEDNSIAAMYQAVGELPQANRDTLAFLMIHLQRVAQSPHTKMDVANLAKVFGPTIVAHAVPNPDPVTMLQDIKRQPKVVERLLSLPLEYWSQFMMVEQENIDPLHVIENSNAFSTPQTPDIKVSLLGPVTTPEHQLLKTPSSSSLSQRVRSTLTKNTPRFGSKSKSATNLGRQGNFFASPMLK

Caspase-6 = biological target: T5, Caspase-6 (Homo sapiens, UniProt P55212); assay: human caspase-6 inhibitors, dose response, biochemical, VEID-R110 fluorescence, cherry-pick (AID 720632)
T5 sequence (P55212 whole entry): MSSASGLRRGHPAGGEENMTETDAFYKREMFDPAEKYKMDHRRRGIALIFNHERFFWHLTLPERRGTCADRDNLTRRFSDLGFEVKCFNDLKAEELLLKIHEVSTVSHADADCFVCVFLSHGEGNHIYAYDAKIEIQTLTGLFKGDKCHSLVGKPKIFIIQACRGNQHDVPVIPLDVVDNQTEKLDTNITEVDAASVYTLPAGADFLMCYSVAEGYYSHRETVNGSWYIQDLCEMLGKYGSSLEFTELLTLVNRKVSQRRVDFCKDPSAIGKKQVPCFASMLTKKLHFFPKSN

[6] = inhibitors of Vif binding to APOBEC3G peptide, primary screen, biochemical, TR-FRET, GST-Vif 1-94, biotin-A3G peptide, dose response retest (AID 1117319); type: functional;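 note: TR-FRET signal of purified GST-Vif binding a biotinylated A3G peptide; inhibitors lower the FRET signal by blocking Vif and A3G binding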
[7] = cytotoxicity in HEK-293T cells, dose response, cytotoxicity control for TCR NF-kB inhibitor project, luminescence, T-cell screen hits (AID 489026); type: functional, cell-based;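 note: cells exposed to compound about 14 hours before the viability readout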
INS1 = assay: beta cell apoptosis inhibitors, cytokine rescue, dose response, luminescence, retest (AID 449756); type: functional, cell-based; conditions: Rattus norvegicus;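 note: cell death triggered by IL-1 beta plus TNF-alpha plus IFN-gamma mixture; protective hits raise ATP signal compared with cytokine alone wells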
[8] = biological target: T6, Endoribonuclease toxin MazF (Escherichia coli K-12, UniProt P0AE70); assay: MazF toxin RNase activators, dose response, biochemical, fluorescence, single-stranded RNA substrate, uHTS hits (AID 588481); type: functional
T6 sequence (P0AE70 whole entry): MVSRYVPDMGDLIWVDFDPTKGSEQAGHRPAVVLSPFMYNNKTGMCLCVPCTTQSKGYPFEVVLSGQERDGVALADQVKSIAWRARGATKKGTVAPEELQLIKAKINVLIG

[9] = biological target: T6, Endoribonuclease toxin MazF; assay: fluorescent RNA oligo signal without MazF, dose response, counter-screen for MazEF activator project, biochemical, fluorescence, single-stranded RNase substrate (AID 588502); type: functional

For `COc1ccc(NC(=O)N(C)C[C@@H]2Oc3cc(-c4ccc(C)cc4)ccc3S(=O)(=O)N([C@@H](C)CO)C[C@@H]2C)cc1`, the AC50 [1] was 3.21 µM (active).
With `Cc1cc(NC2CCCC2)n2ncc(-c3ccccc3)c2n1` the IC50 [2] was 49.3 µM (inactive).
For `O=C(O)CC1Oc2ccc(Cl)cc2NC1=O` (stereo unspecified), the Ki (fMet-Leu-Phe receptor) was > 66.7 µM (inactive).
For `c1ccc(CCc2nn3c(C4COc5ccccc5O4)nnc3s2)cc1` (stereo unspecified), the CC50 [3] was > 40 µM (active).
For `COC(=O)CCC(=O)OC1(C)C(=O)C2=CN(C3CCCC3)C(c3ccc(OC)cc3)=CC2=C(Br)C1=O` (stereo unspecified), the IC50 [4] was 17.4 µM (active) and the IC50 (Genome polyprotein) was 33.8 µM (active).
In the case of `O=C(O)CCNc1cc(N2CCN(C(=O)c3ccco3)CC2)c2noc3c2c1C(=O)c1ccccc1-3`, the IC50 (Nonstructural protein 1) is reported as 26.9 µM (active) and the IC50 [4] is reported as 21.4 µM (active).
With `COc1cc(/C=N/Nc2ccc(C(=O)O)cc2)ccc1O` the IC50 [5] was 39.9 µM (active) and the AC50 (Caspase-6) was 11.1 µM (active).
For `COc1ccccc1-c1ccccc1[C@@H]1[C@@H](C#N)N(C(=O)C2CC2)[C@@H]1CO`, the AC50 [1] was 17.4 µM (active).
For `CC(C)(C)n1nc2c(c1NC(=O)c1ccc(Br)o1)C[S+]([O-])C2` (stereo unspecified), the IC50 [6] was > 100 µM (active).
In the case of `Cc1ccc(S(=O)(=O)NCc2ccncc2)c(C)c1C`, the IC50 [7] is reported as > 80 µM (inactive), the AC50 (INS1) is reported as 2.48 µM (active) and the IC50 [2] is reported as 5.99 µM (active).
In the case of `CCOC(=O)Nc1ccc(OC)cc1S(=O)(=O)N1CCCCC1`, the Ki (fMet-Leu-Phe receptor) is reported as > 66.7 µM (inactive).
For `O=S(=O)(c1c[nH]cn1)N1CCc2ccccc21`, the Ki (fMet-Leu-Phe receptor) was > 66.7 µM (inactive).
With `COc1cc(OC)c(OC)cc1/C=C(\C#N)C(=O)NCc1cccs1` the EC50 [8] was > 99 µM (inactive) and the EC50 [9] was > 99 µM (inactive).
For `O=C(N/N=C/c1cc(Br)c(O)c(Br)c1O)c1cccnc1`, the IC50 (Nonstructural protein 1) was 15.5 µM (active) and the AC50 (Caspase-6) was 22.9 µM (active).

— ChEMBL document CHEMBL1201862, “PubChem BioAssay data set” (2004)
